Reference: patent publication US20070004686A1, “Attractant for apple fruit moth and other insect pests of apple” (priority 2002, published 2007)
“Also recorded” adds a separate entry of the source.

Key:
Type in all cases: in vivo
[1] = system: codling moth Cydia pomonella; assay: Field trap attraction of codling moth; settings: traps baited with 10 mg
Experimental: (§1) The compounds eliciting a strong response from antennae of female apple fruit moth and codling moth were then all tested in field traps for attraction of insects. Compounds were applied at a standard dose of 10 mg on red rubber septa, the septa were mounted in Tetra traps with sticky bottoms (Arm et al. 1979).
In a wind tunnel experiment, a blend of farnesol and (E)-beta-farnesene released at 10 ng/min attracted within 2 min 35% of the males tested to the source (N=60).

[2] = system: apple fruit moth Argyresthia conjugella; assay: Field trap attraction of apple fruit moth; settings: for relative attractiveness for apple fruit moth among compounds and blends tested: field traps, 10 mg on red rubber septa, males and females; for attraction of apple fruit moth females and males to field traps compared with blank: single compounds, 10 mg on red rubber septa in Tetra traps with sticky bottoms
Experimental: as §1
Furthermore, 2-phenyl ethanol was tested in a series of 2-component blends, including all compounds which had shown some attractiveness by themselves.
(§2) Its attractivity can be augmented by blending it with anethole. […] Both sexes of Argyresthia conjugella were attracted. Attraction of females is of importance for monitoring the migration of mated females into orchards. Attraction of females enables population control by mass-trapping, by an attracticide formulation, or by disruption of mating and oviposition behaviour.

other insects = assay: Field trapping experiment, species specificity (other insects); settings: conditions tested (region, time of season)
Experimental: as §1, §2
Attraction of Argyresthia conjugella to 2-phenyl ethanol has not been reported, and the blend of 2-phenyl ethanol and anethole has not been described to be attractive for any other species.

| SMILES | attraction of codling moth males to baited traps [1] | attraction of apple fruit moth females and males to field traps compared with blank [2] | further results |
| --- | --- | --- | --- |
| CC/C=C\CCOC(=O)C(C)CC (stereo not drawn) [(Z)3-hexenyl 2-methylbutanoate] | attracted in significant numbers | – | – |
| CC(C)=CCCC(C)=CCCC(C)=CCO [farnesol, Farnesol] | attracted in significant numbers | – | – |
| CC/C=C\CC1=C(C)CCC1=O [cis-jasmone] | attracted in significant numbers | – | – |
| OCCc1ccccc1 [2-phenyl ethanol, 2-Phenyl ethanol] | – | numbers significantly different from blank; also recorded: attractant for both males and females | relative attractiveness for apple fruit moth among compounds and blends tested [2]: single most attractive compound; attraction of insects other than Argyresthia conjugella (species specificity) (other insects): no other insects were attracted in significant numbers |
| COc1ccc(C=O)cc1 [p-anisaldehyde, P-Anisaldehyde] | attracted in significant numbers | numbers significantly different from blank | – |
| C=CC(C)(O)CCC=C(C)C (stereo not drawn) [linalool, Linalool] | – | numbers significantly different from blank | – |
| CC=Cc1ccc(OC)cc1 [anethole, Anethole] | attracted in significant numbers | numbers significantly different from blank | relative attractiveness for apple fruit moth among compounds and blends tested ([2]; listed as Anethole): only a weak attractant |
